Results on 5 molecules are retold here after patent publication US20110086759A1, “CHEMICAL COMPOUNDS” (SYNGENTA CROP PROTECTION, INC., priority 2007, published 2011).

Structures are written as SMILES.

What all share (type): in vivo
The test system of assay [1] is Echinochloa crus-galli (ECHCG). As to the kind of experiment: Pre-emergence biological efficacy, glasshouse pot test. As to conditions: 312 h. The essentials: (§1)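 Damage rated 0–100 (100 = total kill) 13 days post-spray. Pots of standard soil were sown and sprayed after one day with test compound at 1000 or 250 g/ha in acetone/water (50:50) plus 0.5% Tween 20.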
Assay [2] concerns Setaria faberi (SETFA). The assay is described as above. Particulars: 312 h. The method in brief:
as §1

The test system of assay [3] is Amaranthus retoflexus (AMARE). Described as above. Particulars: Amaranthus retroflexus, 312 h. The method in brief: as §1
For assay [4], the system named is Solanum nigrum (SOLNI). The description is as above. Particulars: 312 h. The essentials: as §1
The test system of assay [5] is Alopecurus myosuroides (ALOMY). Described as above. As to conditions: 312 h. The method in brief: as §1
Assay [6] concerns Ipomea hederaceae (IPOHE). Described as above. Particulars: Ipomoea hederacea, 312 h. The essentials: as §1
For assay [7], the system named is Echinochloa crus-galli (ECHCG). The experiment in a line: Post-emergence biological efficacy, glasshouse pot test. As to conditions: 312 h. The method in brief: (§2)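 Pot-grown weeds were sprayed 8 days after sowing with test compound in acetone/water (50:50) with 0.5% Tween 20 at 1000 or 250 g/ha. Glasshouse at 24/16° C day/night, 14 h light, 65% humidity. Damage scored 0-100 (100 = total damage) after 13 days.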

In assay [8] the test system is Setaria faberi (SETFA). The description is as above. As to conditions: 312 h. The method in brief:
as §2

The test system of assay [9] is Amaranthus retoflexus (AMARE). The description is as above. Particulars: Amaranthus retroflexus, 312 h. The essentials:
as §2

Assay [10] concerns Solanum nigrum (SOLNI). The assay is described as above. As to conditions: 312 h. The method in brief: as §2
In assay [11] the test system is Alopecurus myosuroides (ALOMY). The description is as above. Particulars: 312 h. The method in brief: as §2
The subject of assay [12] is Ipomea hederaceae (IPOHE). Described as above. Particulars: Ipomoea hederacea, 312 h. The method in brief:
as §2

[13] abbreviates: pre-emergence, 1,000 g/ha, evaluated after 13 days (100=total damage; 0=no damage), read-out: Percentage damage ECHCG.
The mark [14] stands for this setting: pre-emergence, 1,000 g/ha, evaluated after 13 days (100=total damage; 0=no damage), read-out: Percentage damage SETFA.
Setting [15] is: pre-emergence, 1,000 g/ha, evaluated after 13 days (100=total damage; 0=no damage), read-out: Percentage damage AMARE.
Setting [16] is: pre-emergence, 1,000 g/ha, evaluated after 13 days (100=total damage; 0=no damage), read-out: Percentage damage SOLNI.
Setting [17] is: pre-emergence, 1,000 g/ha, evaluated after 13 days (100=total damage; 0=no damage), read-out: Percentage damage ALOMY.
The mark [18] stands for this setting: pre-emergence, 1,000 g/ha, evaluated after 13 days (100=total damage; 0=no damage), read-out: Percentage damage IPOHE.
[19] abbreviates: post-emergence, 1,000 g/ha, evaluated after 13 days (100=total damage; 0=no damage), read-out: Percentage damage caused to weed species, ECHCG.
Setting [20] is: post-emergence, 1,000 g/ha, evaluated after 13 days (100=total damage; 0=no damage), read-out: Percentage damage caused to weed species, SETFA.
Setting [21] is: post-emergence, 1,000 g/ha, evaluated after 13 days (100=total damage; 0=no damage), read-out: Percentage damage caused to weed species, AMARE.
Setting [22] is: post-emergence, 1,000 g/ha, evaluated after 13 days (100=total damage; 0=no damage), read-out: Percentage damage caused to weed species, SOLNI.
Where [23] appears, read: post-emergence, 1,000 g/ha, evaluated after 13 days (100=total damage; 0=no damage), read-out: Percentage damage caused to weed species, ALOMY.
Setting [24] is: post-emergence, 1,000 g/ha, evaluated after 13 days (100=total damage; 0=no damage), read-out: Percentage damage caused to weed species, IPOHE.

Take `COC(=O)c1nc(C2CC2)nc(NCc2ccc(N(C)C)cc2)c1Cl` [Compound 4-87, 5-Chloro-2-cyclopropyl-4-(4-dimethylamino-phenylmethyl-amino)-6-methoxycarbonyl-pyrimidine]: the pest or weed control at 1000 g/ha in [1] (setting [13]) was found to be 90%; in the assay on Setaria faberi (SETFA) [2] (setting [14]), 90%; in assay [3] (setting [15]), 100%; in the assay with Solanum nigrum (SOLNI) [4] (setting [16]), 100%; in assay [5] (setting [17]) it was 90%; in assay [6] (setting [18]), 100%. The pest or weed control at 1000 g/ha was determined as 60% in [7] (setting [19]); 100% in the assay with Setaria faberi (SETFA) [8] (setting [20]); 100% in assay [9] (setting [21]); 100% in the assay on Solanum nigrum (SOLNI) [10] (setting [22]); 60% in assay [11] (setting [23]); 100% in assay [12] (setting [24]).

Take `CCCCN(Cc1ccccc1)c1nc(C2CC2)nc(C(=O)OC)c1Cl` [Compound 147-60, 4-(N-But-1-yl-N-phenylmethyl-amino)-5-chloro-2-cyclopropyl-6-methoxycarbonyl-pyrimidine]: the pest or weed control at 1000 g/ha in assay [1] (pre-emergence, rate 1,000 g/ha, evaluated after 13 days (100=total damage to plant; 0=no damage), read-out: Percentage damage caused to weed species, ECHCG) was 20%; in the assay with Setaria faberi (SETFA) [2] (pre-emergence, rate 1,000 g/ha, evaluated after 13 days (100=total damage to plant; 0=no damage), read-out: Percentage damage caused to weed species, SETFA) it was 0%; in assay [3] (pre-emergence, rate 1,000 g/ha, evaluated after 13 days (100=total damage to plant; 0=no damage), read-out: Percentage damage caused to weed species, AMARE) it was 100%; with Solanum nigrum (SOLNI) [4] (pre-emergence, rate 1,000 g/ha, evaluated after 13 days (100=total damage to plant; 0=no damage), read-out: Percentage damage caused to weed species, SOLNI) it was 80%; in assay [5] (pre-emergence, rate 1,000 g/ha, evaluated after 13 days (100=total damage to plant; 0=no damage), read-out: Percentage damage caused to weed species, ALOMY), 40%; in assay [6] (pre-emergence, rate 1,000 g/ha, evaluated after 13 days (100=total damage to plant; 0=no damage), read-out: Percentage damage caused to weed species, IPOHE) it was 30%. In addition, the pest or weed control at 1000 g/ha in assay [7] (Rate 1,000 g/ha, post-emergence spray, evaluated after 13 days (100=total damage to plant; 0=no damage to plant), read-out: Percentage damage caused to weed species, post-emergence, ECHCG) was found to be 10%; in the assay with Setaria faberi (SETFA) [8] (Rate 1,000 g/ha, post-emergence spray, evaluated after 13 days (100=total damage to plant; 0=no damage to plant), read-out: Percentage damage caused to weed species, post-emergence, SETFA), 40%; in assay [9] (Rate 1,000 g/ha, post-emergence spray, evaluated after 13 days (100=total damage to plant; 0=no damage to plant), read-out: Percentage damage caused to weed species, post-emergence, AMARE) it was 70%; in the assay with Solanum nigrum (SOLNI) [10] (Rate 1,000 g/ha, post-emergence spray, evaluated after 13 days (100=total damage to plant; 0=no damage to plant), read-out: Percentage damage caused to weed species, post-emergence, SOLNI), 80%; in [11] (Rate 1,000 g/ha, post-emergence spray, evaluated after 13 days (100=total damage to plant; 0=no damage to plant), read-out: Percentage damage caused to weed species, post-emergence, ALOMY), 10%; in assay [12] (Rate 1,000 g/ha, post-emergence spray, evaluated after 13 days (100=total damage to plant; 0=no damage to plant), read-out: Percentage damage caused to weed species, post-emergence, IPOHE) it was 80%.

As to `COC(=O)c1nc(C2CC2)nc(NCC(O)COc2ccc(Cl)cc2)c1Cl` (stereo not drawn) [Compound 4-264, 5-Chloro-4-[3-(4-chlorophenoxy)-2-hydroxy-propylamino]-2-cyclopropyl-6-methoxycarbonyl-pyrimidine], the pest or weed control at 1000 g/ha was 60% in [1] (setting [13]); 80% in the assay on Setaria faberi (SETFA) [2] (setting [14]); 80% in assay [3] (setting [15]); 90% with Solanum nigrum (SOLNI) [4] (setting [16]); 40% in assay [5] (setting [17]); 90% in assay [6] (setting [18]). Besides, the pest or weed control at 1000 g/ha in assay [7] (setting [19]) is 50%; in the assay on Setaria faberi (SETFA) [8] (setting [20]), 70%; in assay [9] (setting [21]) it was 100%; in the assay with Solanum nigrum (SOLNI) [10] (setting [22]), 100%; in [11] (setting [23]), 30%; in [12] (setting [24]), 60%.

In the case of `COC(=O)c1nc(C2CC2)nc(NCc2cccc(C)c2)c1Cl` [Compound 4-72, 5-Chloro-2-cyclopropyl-6-methoxycarbonyl-4-(3-methylphenyl-methylamino)-pyrimidine], the pest or weed control at 1000 g/ha was 40% in assay [1] (setting [13]); 10% with Setaria faberi (SETFA) [2] (setting [14]); 60% in [3] (setting [15]); 40% in the assay on Solanum nigrum (SOLNI) [4] (setting [16]); 10% in assay [5] (setting [17]); 40% in assay [6] (setting [18]). In addition, the pest or weed control at 1000 g/ha in assay [7] (setting [19]) turned out to be 50%; in the assay with Setaria faberi (SETFA) [8] (setting [20]), 30%; in assay [9] (setting [21]), 100%; in the assay with Solanum nigrum (SOLNI) [10] (setting [22]), 100%; in assay [11] (setting [23]), 10%; in [12] (setting [24]) it was 100%.

Turning to `COC(=O)c1nc(C2CC2)nc(NCCCCc2ccccc2)c1Cl` [Compound 4-253, 5-Chloro-2-cyclopropyl-6-methoxycarbonyl-4-(4-phenylbutyl-amino)pyrimidine], the pest or weed control at 1000 g/ha stood at 20% in assay [1] (setting [13]); 30% in the assay with Setaria faberi (SETFA) [2] (setting [14]); 50% in assay [3] (setting [15]); 80% in the assay with Solanum nigrum (SOLNI) [4] (setting [16]); 10% in [5] (setting [17]); 100% in assay [6] (setting [18]). Moreover, the pest or weed control at 1000 g/ha in assay [7] (setting [19]) is 40%; with Setaria faberi (SETFA) [8] (setting [20]), 50%; in assay [9] (setting [21]) it was 100%; in the assay on Solanum nigrum (SOLNI) [10] (setting [22]), 100%; in assay [11] (setting [23]), 10%; in [12] (setting [24]), 70%.
